Data taken from patent US20200017495A1, “NOVEL HETEROCYCLIC COMPOUNDS AND THEIR USE IN PREVENTING OR TREATING BACTERIAL INFECTIONS” (priority 2017, published 2020).
Read-outs that look alike come from different tables or passages of the source.

Columns and labels:
Format in all cases: cell-based
[1] = tested on: Salmonella typhimurium (STY) isolates; test: MIC of compounds alone and combined with antibacterials, broth microdilution (CLSI)
How it was run: (§1)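 Growth inhibition was scored by eye after 16-20 h at 35° C in air, using cation-adjusted Mueller-Hinton broth seeded with 5.10^5 CFU/mL log-phase cells. Single agents gave compound MICs; paired with antibiotics, the antibiotic MIC was taken at every compound concentration.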

[2] = tested on: Providencia stuartii (PST) isolates; test: as above
How it was run: as §1

[3] = tested on: Klebsiella oxytoca (KOX) isolates; test: as above
How it was run: (§2)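 Antibacterial MICs in combination were determined at every compound concentration tested, alongside compound MICs alone. Bacteria grew in cation-adjusted Mueller-Hinton broth starting from 5.10^5 CFU/mL, incubated at 35° C for 16-20 h, and endpoints were the lowest concentrations with no visible growth.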

[4] = tested on: Enterobacter aerogenes (EAE) isolates; test: as above
How it was run: as §2

[5] = tested on: Proteus mirabilis (PMI) isolates; test: microbe, parasite or virus in culture
How it was run: as §2

Compound: CO/N=C(\C(=O)N[C@@H]1C(=O)N2C(C(=O)O)=C(COC(N)=O)CS[C@H]12)c1ccco1 [FUR, Cefuroxime]
- MIC ([1]; strain STY S3371, genotype OXA-1): 32 µg/mL
- MIC ([2]; strain PST UFR94, genotype CTX-M-14): >256 µg/mL
- MIC ([2]; strain PST UFR95, genotype TEM-24): 128 µg/mL
- MIC ([2]; strain PST UFR235, genotype VEB-1): 256 µg/mL
- MIC ([3]; strain KOX UFR21, genotype TEM-1, CTX-M-15, OXA-48): >256 µg/mL
- MIC ([3]; strain KOX UFR173, genotype OXY2-2): >256 µg/mL
- MIC ([3]; strain KOX UFR223, genotype SHV-11, OXA-48): 8 µg/mL
- MIC ([3]; strain KOX UFR224, genotype CTX-M-15, OXA-48): >256 µg/mL
- MIC ([4]; strain EAE 49469, genotype AmpC): >128 µg/mL
- MIC ([4]; strain EAE 200261, genotype TEM-x, AmpC): >256 µg/mL
- MIC ([4]; strain EAE UFR199, genotype TEM-1b, SHV-12, KPC-2, OXA-9): >256 µg/mL
- MIC ([4]; strain EAE UFR201, genotype TEM-1, SHV-12, CTX-M-15): >256 µg/mL
- MIC ([4]; strain EAE UFR202, genotype TEM-24): >256 µg/mL
- MIC ([4]; strain EAE UFR213, genotype TEM-24): >256 µg/mL
- MIC ([5]; strain PMI UFR82, genotype CMY-2): 16 µg/mL
- MIC ([5]; strain PMI UFR120, genotype TEM-1, SHV-11, CTX-M-14): >256 µg/mL
- MIC ([5]; strain PMI UFR121, genotype TEM-1, TEM-52): >256 µg/mL
- MIC ([5]; strain PMI UFR122, genotype TEM-1, CTX-M-15): >256 µg/mL
- MIC ([5]; strain PMI UFR123, genotype CTX-M-1): >256 µg/mL
- MIC ([5]; strain PMI UFR124, genotype CTX-M-2): >256 µg/mL
- MIC ([5]; strain PMI UFR125, genotype CTX-M-71): >256 µg/mL
- MIC ([5]; strain PMI UFR126, genotype TEM-2, PER-1): >256 µg/mL
- MIC ([5]; strain PMI UFR127, genotype VEB-1): >256 µg/mL
- MIC ([5]; strain PMI UFR129, genotype TEM-1, VEB-6): >256 µg/mL
- MIC ([5]; strain PMI UFR130, genotype CMY-2): 8 µg/mL
- MIC ([5]; strain PMI UFR237, genotype VEB-6): >256 µg/mL

Compound: COCC1=C(C(=O)O)N2C(=O)[C@@H](NC(=O)/C(=N\OC)c3csc(N)n3)[C@H]2SC1 [POD, Cefpodoxime]
- MIC ([1]; Salmonella enterica, TYPHIMURIUM): 4 µg/mL
- MIC ([2]; Providencia stuartii, strain PST UFR94, genotype CTX-M-14, read-out: MIC): 32 µg/mL
- MIC ([2]; Providencia stuartii, strain PST UFR95, genotype TEM-24, read-out: MIC): 16 µg/mL
- MIC ([2]; Providencia stuartii, strain PST UFR235, genotype VEB-1, read-out: MIC): 128 µg/mL
- MIC ([3]; Klebsiella oxytoca, strain KOX UFR223, genotype SHV-11, OXA-48, read-out: MIC): 0.5 µg/mL
- MIC ([4]; Klebsiella aerogenes, strain EAE 49469, genotype AmpC, read-out: MIC): > 128 µg/mL
- MIC ([5]; Proteus mirabilis, strain PMI UFR82, genotype CMY-2, read-out: MIC): 64 µg/mL
- MIC ([5]; Proteus mirabilis, strain PMI UFR122, genotype TEM-1, CTX-M-15, read-out: MIC): 64 µg/mL
- MIC ([5]; Proteus mirabilis, strain PMI UFR127, genotype VEB-1, read-out: MIC): 128 µg/mL
- MIC ([5]; Proteus mirabilis, strain PMI UFR130, genotype CMY-2, read-out: MIC): 128 µg/mL
